Read-outs that look alike come from different tables or passages of the source.
Experiments:
[1] = system: Androstenedione synthesis in C4-2 prostate cancer cells; experiment: Cell line steroid metabolism: androstenedione synthesis inhibition (HPLC, [3H]-labeled androgens); assay type: cell-based; settings: Homo sapiens, serum-free RPMI-1640, [3H]-labeled androgens 25 nM
Method: Cells were seeded and incubated in 12-well plates with 0.15 million cells/well in RPMI-1640 medium with 10% FBS for ˜24 h at 37° C. Culture medium was then replaced with serum-free RPMI-1640 and a mixture of radioactive ([3H]-labeled) and non-radioactive androgens (final concentration, 25 nM; ˜600,000 cpm/well; PerkinElmer, Waltham, MA) plus inhibitor compounds at specified concentrations was added. […]
High-performance liquid chromatography (HPLC) analysis was performed on a Waters 1525 HPLC system (Waters Corp., Milford, MA). Dried samples were reconstituted in 50% methanol and injected into the HPLC. Steroids were separated on a Luna 150×4.6 mm, 3.0 μm particle size C18 reverse-phase column (Phenomenex, Torrance, CA) with a methanol/water gradient at 50° C. Column effluent was mixed with Liquiscint scintillation cocktail (National Diagnostics, Atlanta, GA) and analyzed using a β-RAM model 4 in-line radioactivity detector (LabLogic, Brandon, FL).

[2] = system: C4-2 prostate cancer cells; experiment: Cellular viability of C4-2 cells (CellTiter-Glo); assay type: cell-based, human; settings: 6 days, 1% FBS + DHEA, read-out: GI50 (μM), growth inhibition
Method: C4-2 cells were routinely maintained in RPMI+2 mM L-Glutamine+1× Anti-Anti+10% FBS. C4-2 cells were harvested by trypsinization for 90 seconds in 0.25% Trypsin-EDTA, counted with a Vi-Cell Blu cell counter (Beckman Coulter), and diluted into Complete Viability Media (RPMI+2 mM L-Glutamine+1× Anti-Anti+1% FBS+[…]) at a density of 10,000 cells/mL. 12-point, two-fold dilution series of test compounds (starting at 10 mM) were prepared in 100% DMSO, and then 450 nL of the dilution series were stamped in triplicate into 384-well, white, opaque bottom, TC-treated CulturPlate™ (Perkin Elmer 6007680) using acoustic dispensing (Labcyte Echo 550). 50 μL/well of the diluted C4-2 cells (500 cells/well) were added directly to the plates containing dispensed compounds, yielding a final [DMSO] of 0.9% and a final top [compound] of 90 μM. The plates were centrifuged for 1 min at 500×g and then incubated for 6 days at 37° C., 5% CO2. Cell density at the end of the assay was measured using 35 μL/well CellTiter-Glo® (Promega) per the manufacturer's recommendations, and total luminescence was measured on a Cytation 5 plate reader. Raw luminescence values were normalized from 0 (empty Viability Media+0.9% DMSO, no cells) to 100 (Cells+0.9% DMSO, maximum proliferation), triplicate values were averaged, and dose-response curves were fit and G150 values extracted using variable slope nonlinear regression in GraphPad Prism.

[3] = target: human 3β-HSD1; experiment: 3β-HSD1 inhibition, colorimetric NADH detection assay; assay type: biochemical; settings: purified recombinant human 3β-HSD1, 50 μM DHEA, 2 mM NAD+, 1 hour, room temperature, duplicate 10-point CRC; read-out: IC50 (nM), in vitro NADH inhibition
human 3β-HSD1, sequence (P14060 2-373 limits assumed): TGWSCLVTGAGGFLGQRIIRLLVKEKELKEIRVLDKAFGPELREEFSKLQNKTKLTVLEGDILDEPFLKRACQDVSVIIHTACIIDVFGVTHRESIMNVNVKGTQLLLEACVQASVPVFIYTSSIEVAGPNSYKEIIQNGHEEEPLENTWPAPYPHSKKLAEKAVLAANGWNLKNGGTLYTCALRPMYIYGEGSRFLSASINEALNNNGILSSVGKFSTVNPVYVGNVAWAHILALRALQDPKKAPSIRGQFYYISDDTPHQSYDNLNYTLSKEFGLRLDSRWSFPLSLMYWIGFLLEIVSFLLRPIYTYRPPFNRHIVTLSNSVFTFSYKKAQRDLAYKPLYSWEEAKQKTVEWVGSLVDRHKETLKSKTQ
Source text: Enzymatic turnover was quantified through NADH generation by purified, recombinant human 3β-HSD1 (expressed in Sf9 insect cells) in the presence of steroidal substrate trans-Dehydroandrosterone (DHEA) that was placed slightly above the experimentally determined Km and saturating amounts of co-factor Nicotinamide adenine dinucleotide (NAD^+). The sequence of recombinant human 3β-HSD1 used is […] […] […] […] […] […] […] (SEQ ID NO: 3). DHEA and NAD+ were enzymatically converted to androstenedione and NADH, respectively. Final NADH concentrations were spectroscopically quantified using a commercially available Amplite™ Colorimetric NADH Assay Kit which utilizes an NADH probe with an absorbance wavelength of 460 nm. Enzymatic assays with a final volume of 25 μL were ran in a 384-well, Greiner Bio-One UV-STAR® assay plate in 50 mM TRIS pH 8.0 assay buffer. […] Compound stocks at 10 mM in DMSO were serial diluted 5-fold in DMSO to generate an ECHO® compatible source plate. 125 nL of DMSO, Trilostane, or serial diluted compounds were then acoustically transferred into an empty UV-STAR® assay plate to give a final assay concentration of 0.5% v/v DMSO. The stamp volume and dilution scheme can be adjusted to accommodate compound potency. The assay can tolerate up to a 5% v/v DMSO final assay concentration. 15 μL of 1 μg purified 3β-HSD1 and 50 μM DHEA (final assay volume concentration) was dispensed per well into the stamped plate, centrifuged for 1 minute at 1000 RPM, covered, and allowed to incubate for 15 minutes at room temp. Enzymatic reactions were initiated upon the addition of 10 μL of NAD^+ diluted in assay buffer to give a final assay volume concentration of 2 mM. The assay plate was centrifuged for 1 minute at 1000 RPM, covered, and incubated at room temperature for 1 hour. 25 μL Amplite™ Colorimetric NADH Assay Kit detection solution (prepared as recommended) was added to all reaction wells, the plate centrifuged for 1 minute at 1000 RPM, covered, and incubated for 15 minutes. Final absorbance values (λ=460 nm) are spectroscopically determined on BioTek® Cytation5 or Synergy4 plate readers. […] From the background subtracted values, the non-inhibited enzyme signal (DMSO treated) was averaged from 32 control reactions. The percent inhibition value was calculated by: % inhibition=(1−((background subtracted inhibited reaction)/(background subtracted non-inhibited average)))*100. The resulting percent inhibition was then plotted in duplicate against corresponding concentration values. The resulting CRCs were fit with a four parameter, variable slope log (inhibitor) vs response equation where Y=bottomvalue+ (topvalue−bottomvalue)/(1+10^((log IC50−X)*Hillslope)) to determine the IC50 values for tested compounds.

[4] = system: C4-2 flank tumor; experiment: CRPC C4-2 flank tumor model in mice; assay type: in vivo; settings: orchiectomized NSG male mice with DHEA pellets, 100 mg/kg in water with 20% Captisol, oral gavage twice daily
Method: The mouse study was performed under a protocol approved by the Institutional Animal Care and Use Committee of the Cleveland Clinic Lerner Research Institute. All NOD scid gamma (NSG) male mice (6 to 8 weeks old) were purchased from the Jackson Laboratory. 10^7 C4-2 cells were injected subcutaneously into mice with matrigel (total injection volume 100 μL). Once tumors reached 100 mm^3 (length×width×height×0.52), mice were surgically orchiectomized and implanted with 5 mg 90-day sustained-release DHEA pellets (Innovative Research of America) to mimic human adrenal DHEA production in patients with CRPC, then the mice were arbitrarily (but not strictly randomized) assigned to vehicle (n=6), Compound 1 (n=6), or Compound 5 (n=6). The mice were given vehicle, Compound 1 (100 mg/kg in water with 20% Captisol), or Compound 5 (100 mg/kg in water with 20% Captisol) by oral gavage twice daily.

IC50 [1] [nM] | GI50 ([2]; Homo sapiens, 144 h) [µM] | IC50 [3] [nM] | GI50 [2] [µM] | Compound | tumor volume compared to vehicle control [4]
83 | 53 | 62 |  | O=C1CCCc2nc(-c3cc(F)c(O)c(F)c3)ccc21 [Compound 1, 2-(3,5-difluoro-4-hydroxyphenyl)-7,8-dihydroquinolin-5(6H)-one] | reduction in tumor volume
14 | 59 | 45 |  | O=C1CCCc2nc(-c3ccc(O)c(F)c3)ccc21 [Compound 2, 2-(3-fluoro-4-hydroxyphenyl)-7,8-dihydroquinolin-5(6H)-one] | 
1.4 | 26 | 71 |  | CC1(C)CCc2nc(-c3cc(F)c(O)c(F)c3)ccc2C1=O [Compound 5, 2-(3,5-difluoro-4-hydroxyphenyl)-6,6-dimethyl-7,8-dihydroquinolin-5(6H)-one] | reduction in tumor volume
7.2 | 37 | 64 |  | CC1CCc2nc(-c3cc(F)c(O)c(F)c3)ccc2C1=O (stereo not drawn) [Compound 7, 2-(3,5-difluoro-4-hydroxyphenyl)-6-methyl-7,8-dihydroquinolin-5(6H)-one] | 
 | 16 | 105 |  | CCC1CCc2nc(-c3cc(F)c(O)c(F)c3)ccc2C1=O (stereo not drawn) [Compound 8, 2-(3,5-difluoro-4-hydroxyphenyl)-6-ethyl-7,8-dihydroquinolin-5(6H)-one] | 
10 | 6 | 37 |  | O=C1c2ccc(-c3cc(F)c(O)c(F)c3)nc2CCC1Cc1ccccc1 (stereo not drawn) [Compound 9, 6-benzyl-2-(3,5-difluoro-4-hydroxyphenyl)-7,8-dihydroquinolin-5(6H)-one] | 
 | 10 | 79 |  | O=C1c2ccc(-c3cc(F)c(O)c(F)c3)nc2CCC1c1ccccc1 (stereo not drawn) [Compound 10, 2-(3,5-difluoro-4-hydroxyphenyl)-6-phenyl-7,8-dihydroquinolin-5(6H)-one] | 
4.8 | 10 | 68 |  | O=C1c2ccc(-c3cc(F)c(O)c(F)c3)nc2CCC12CC2 [Compound 11] | 
 | 61 | 2560 |  | CC1(C)CCc2nc(-c3cc(F)c(O)c(F)c3)ccc2C1O (stereo not drawn) [Compound 12] | 
 | 20 | 376 |  | CC1(C)CCc2nc(-c3cc(F)c(O)c(F)c3)ccc2C1(C)O (stereo not drawn) [Compound 16] | 
 | 30 | 331 |  | CC1(C)CCc2nc(-c3cc(F)c(O)c(F)c3)ccc2C1(O)C1CC1 (stereo not drawn) [Compound 20] | 
1 |  | 84 |  | CC1(C)CCc2nc(-c3cc(F)c(O)cc3F)ccc2C1=O [Compound 25] | 
68 |  | 79 |  | O=C1c2ccc(-c3cc(F)c(O)c(F)c3)nc2CCC1(F)F [Compound 41] | 
0.7 |  | 89 |  | CC[C@@]1(C)CCc2nc(-c3cc(F)c(O)c(F)c3)ccc2C1=O [Compound 55] | 
3.8 |  | 71 |  | CCC1(CC)CCc2nc(-c3cc(F)c(O)c(F)c3)ccc2C1=O [Compound 59] | 
 |  | 52 |  | CCOC1(c2ccccc2)CCCc2nc(-c3cc(F)c(O)c(F)c3)ccc21 (stereo not drawn) [Compound 90] | 
 |  | 25 |  | COC1(c2cccnc2)CCCc2nc(-c3cc(F)c(O)c(F)c3)ccc21 (stereo not drawn) [Compound 91] | 
 |  | 68 |  | Oc1c(F)cc(-c2ccc3c(n2)CCCC3(O)c2cccnc2)cc1F (stereo not drawn) [Compound 92] | 
 |  | 131 |  | COC1(c2ccccn2)CCCc2nc(-c3cc(F)c(O)c(F)c3)ccc21 (stereo not drawn) [Compound 93] | 
 |  | 238 |  | Oc1c(F)cc(-c2ccc3c(n2)CCCC3(O)c2ccccn2)cc1F (stereo not drawn) [Compound 94] | 
 |  | 100 |  | COC1(c2ncco2)CCCc2nc(-c3cc(F)c(O)c(F)c3)ccc21 (stereo not drawn) [Compound 95] | 
 |  |  | 2.4 ± 0.4 | C[C@]12CCC(=O)C=C1CC[C@@H]1[C@@H]2CC[C@]2(C)C(c3cccnc3)=CC[C@@H]12 [D4-Abiraterone, reference compound] | 

From patent US20250241905A1, “3-BETA-HSD1 INHIBITORS AND COMPOSITIONS AND USES THEREOF” (The Cleveland Clinic Foundation, priority 2022, published 2025)
